This is an account of results in US10722520B2, “Heterocyclic compounds and their use in preventing or treating bacterial infections” (MUTABILIS, priority 2016, dated 2020).

pIC50: −log10 of the molar value. Where two headings read alike, the source gives them in different places.

The target in test [1] is T1, AmpC (PAE) (Pseudomonas aeruginosa, UniProt P24735). As to the kind of experiment: biochemical.
The target in test [2] is T1, AmpC (PAE). To be noted: read-out: IC50 β-lactamase AmpC (PAE); class (C); nitrocefin 200 μM, 30-min pre-incubation, enzyme 0.4 nM.
In another test the target is AmpC (P99) (Enterobacter cloacae, UniProt P05364). As to conditions: read-out: IC50 β-lactamase AmpC (P99); class (C); nitrocefin 200 μM, 30-min pre-incubation, enzyme 0.2 nM.
AmpC (P99), sequence (P05364 21-381): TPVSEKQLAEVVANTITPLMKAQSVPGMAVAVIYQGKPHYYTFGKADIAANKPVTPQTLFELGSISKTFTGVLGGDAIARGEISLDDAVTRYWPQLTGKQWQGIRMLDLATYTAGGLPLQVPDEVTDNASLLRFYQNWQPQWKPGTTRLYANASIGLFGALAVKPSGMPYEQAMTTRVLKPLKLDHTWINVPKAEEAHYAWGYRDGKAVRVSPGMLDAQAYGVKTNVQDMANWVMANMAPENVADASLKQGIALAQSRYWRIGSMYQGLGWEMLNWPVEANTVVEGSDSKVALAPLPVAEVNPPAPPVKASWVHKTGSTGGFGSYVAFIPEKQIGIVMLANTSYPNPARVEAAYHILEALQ
The target of another test is OXA-15 (Pseudomonas aeruginosa, UniProt Q51574). To be noted: read-out: IC50 β-lactamase OXA-15; class (D); nitrocefin 200 μM, 30-min pre-incubation, enzyme 0.4 nM.
OXA-15, sequence (Q51574 22-275): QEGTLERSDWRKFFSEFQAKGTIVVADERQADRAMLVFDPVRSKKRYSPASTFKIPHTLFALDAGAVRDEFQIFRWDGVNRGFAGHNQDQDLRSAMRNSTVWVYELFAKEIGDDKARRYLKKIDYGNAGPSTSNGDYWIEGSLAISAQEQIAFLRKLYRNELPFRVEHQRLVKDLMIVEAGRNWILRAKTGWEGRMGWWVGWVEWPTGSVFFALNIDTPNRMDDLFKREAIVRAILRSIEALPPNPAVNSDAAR

T1 sequence (P24735 27-397): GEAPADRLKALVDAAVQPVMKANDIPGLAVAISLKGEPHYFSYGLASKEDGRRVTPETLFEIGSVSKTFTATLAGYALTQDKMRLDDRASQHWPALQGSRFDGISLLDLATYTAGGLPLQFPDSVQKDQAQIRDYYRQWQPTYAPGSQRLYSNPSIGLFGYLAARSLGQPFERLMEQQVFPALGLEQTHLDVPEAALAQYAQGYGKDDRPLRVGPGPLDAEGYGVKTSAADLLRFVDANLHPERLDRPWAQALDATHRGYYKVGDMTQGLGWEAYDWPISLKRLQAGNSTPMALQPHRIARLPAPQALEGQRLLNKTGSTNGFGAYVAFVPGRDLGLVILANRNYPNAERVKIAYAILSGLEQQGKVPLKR

One may read the pIC50 as the negative decadic logarithm of the IC50, by convention in mol/L. Take `O=C1N2CC(n3ccsc3=O)=CC(C2)N1OS(=O)(=O)[O-].[Na+]` (centres unmarked) [Example 1, Sodium [7-oxo-3-(2-oxo-thiazol-3-yl)-1,6-diaza-bicyclo[3.2.1]oct-3-en-6-yl]sulfate]: the pIC50 against AmpC (PAE) [1] is 6.92. On to `O=C1N2CC(n3ccnn3)=CC(C2)N1OS(=O)(=O)[O-].[Na+]` (centres unmarked) [Example 2, sodium [7-oxo-3-(triazol-1-yl)-1,6-diazabicyclo[3.2.1]oct-3-en-6-yl]sulfate], for which the pIC50 at AmpC (PAE) [2] was 6.82; at AmpC (P99), 8.00; on OXA-15, 7.40. For the compound `O=C1N2CC(n3cncn3)=CC(C2)N1OS(=O)(=O)[O-].[Na+]` (centres unmarked) [Example 5, sodium [7-oxo-3-(1,2,4-triazol-1-yl)-1,6-diazabicyclo[3.2.1]oct-3-en-6-yl]sulfate], the pIC50 at AmpC (PAE) [1] is 6.85.
